Data reported in PMC8052528 (Protein & Cell, 2021).

Key:
[1] = Phase 1 and Phase 2 clinical trials; ref Satoh et al., 2009; Kelly et al., 2013; cited from earlier work
SARS-CoV-2 = assay type: cell-based

COCCn1c2c([n+](Cc3cnccn3)c1C)C(=O)c1ccccc1C2=O [YM155]
tolerability in humans [1]: well tolerated

C[C@H]1COC2=C1C(=O)C(=O)c1c2ccc2c1CCCC2(C)C [cryptotanshinone]
intracellular NP level versus control group (10 μmol/L chloroquine) (SARS-CoV-2): comparable NP levels with the control group

Cc1coc2c1C(=O)C(=O)c1c-2ccc2c(C)cccc12 [tanshinone I]
intracellular NP level versus control group (10 μmol/L chloroquine) (SARS-CoV-2): comparable NP levels with the control group
